Compound | melting point [°C]
COc1ccc(-c2ccn(C)c2-c2ccc(OC)cc2)cc1 | 126 to 127
CN(C(=O)OC(C)(C)C)[C@@H]1CCc2c(c3cc(S(=O)(=O)c4ccccc4)ccc3n2C)C1 | 181 to 183
CN1C(=O)CN=C(c2ccccc2F)c2cc(NC(=O)NCCOC(C)(C)C)ccc21 | 177
Cc1cccc(Nc2ncccc2[N+](=O)[O-])n1 | 153 to 154
CCOC(=O)c1ncn(-c2nc(C)c(Cl)s2)c1S(N)(=O)=O | 136 to 139
COc1ccc2c(c1)CN(CCc1ccc(NC(=O)c3cccc4c(=O)c5cccc(OC)c5[nH]c34)cc1)CC2 | 213 to 216
COc1ccc(C2CC(=O)N(c3c(C)c(C)c4c(c3C)[C@@H](c3ccc(C)cc3)C(C)(C)O4)C(=O)C2)cc1 | 207 to 209
O=C(/C=C/c1cccc(S(=O)(=O)N2CCN(CCc3ccc4ccccc4c3)CC2)c1)NO | 184
CCC(=O)c1ccc(Oc2ccc(-c3scc(-c4ccccc4Cl)c3CC(=O)N=C(N)N)cc2)cc1 | 123 to 124
O=C(N1CCOCC1)C(c1ccccc1)(c1ccccc1)c1ncc[nH]1 | 113
COc1ccc(-c2nc3c(o2)C(=O)c2ccccc2C3=O)cc1 | > 260
O=C(O)Cc1ccc2c(c1)C(=O)c1ccccc1CS2 | 96 to 97
CNc1cc(Oc2ccc3c(C(=O)Nc4ccc(N5CCOCC5)c(C(F)(F)F)c4)cccc3c2)ncn1 | 156 to 157
O=Cc1cn(Cc2ccc3cc(OCc4ccccc4)ccc3c2)cc1-c1ccccc1 | 140 to 141
COc1cccc2oc(-c3ccc(C)cc3)cc(=O)c12 | 169 to 171
NC(=O)c1cccc2c1c1c(OCC(=O)O)ccc(Cl)c1n2Cc1ccccc1 | 240 to 242
CCCCc1nc(Cl)c(CC(Cc2ccccc2)C(=O)O)n1Cc1ccccc1Cl (stereo not drawn) | 138 to 139
c1ccc(Cn2cnc3c(OC4CN5CCC4CC5)nccc32)cc1 (stereo not drawn) | 162 to 183
CCc1ccc2c(-c3cnc4[nH]cc(C(=O)N[C@H](C)C(=O)N5CC(C#N)C5)c4n3)nn(C)c2c1 | 185 to 190
CN1C(=O)CC[C@]2(C)c3ccc(-c4ccc(Oc5ccccc5)cc4)cc3CC[C@@H]12 | 148 to 150
O=C(Cl)N1Cc2ccccc2Oc2ccc(Cl)cc21 | 100 to 102
O=C(C(=O)c1ccn(CC(F)(F)F)c1)c1cccc(Br)c1 | 105 to 106
CS(=O)(=O)c1ccc(-c2cccn2-c2ccc(F)c(F)c2)cc1 | 137 to 139
O=C(O)c1c(OCc2ccccc2)c2ccccc2n1-c1ccccc1 | 140 to 142
CSc1c(S(=O)(=O)NC(C)(C)C)ccn1C | 116 to 119

Compound | melting point [°C]
O=C1NC(Cc2ccc(OCc3ccccc3)cn2)C(=O)NC1Cc1cccnc1 (stereo not drawn) | 193 to 196
CC(C)Nn1c(CO)nc2c(N)nc3ccccc3c21 | 228 to 229
OC1CSC(Oc2cncc(-c3ccc(F)cc3)c2)C(O)C1O (stereo not drawn) | 208 to 209
O=C(Cn1c(=O)n(-c2ccc3c(c2)OCO3)c2ncccc21)N1CCOCC1 | 212 to 213
OC(=S)CCc1ccc(F)cc1 | 68 to 69
CSc1ccc(-c2n[nH]c(=O)cc2-c2ccccc2)cc1 | 186
CC(C)COC(=O)N1CCN(c2nc3cccccc-3n2)CC1 | 130 to 133
CC(=O)CCc1ccc(I)cc1 | 75 to 76
O=Cc1ccccc1-c1ccc(CBr)cc1 | 63 to 66
CC(C(=O)N1CCCC(C)(C)C1)N(C(=O)CN1C(=O)c2ccccc2C1=O)c1ccccc1 (racemic) | 171
COc1ccc(S(=O)(=O)Nc2cccnc2Nc2ccccc2OC)cc1 | 159 to 160
COc1ccc2nc(C3(OC)C=CC(=NS(=O)(=O)c4ccc(C)cc4)C=C3)sc2c1 (stereo not drawn) | 166 to 168
CCC(C)(C)c1c(OCc2ncnn2C)nn2c(-c3ccccc3F)nncc12 | 89 to 91
Cc1cccc(C)c1OCC(=O)NC(C)C(N)=O (stereo not drawn) | 177 to 178
Fc1ccc(Nc2ncnc3cnc(OC4CCOCC4)nc23)cc1Cl | 220 to 222
COc1ccc(-c2ncccc2OC2SCC(O)C(O)C2O)cc1 (stereo not drawn) | 137
COc1ccc(C(=O)O)c(C)c1OC | 179 to 180
COC(=N)c1ccc(-c2ccc([N+](=O)[O-])cc2)o1 | 184 to 188
CNC(=S)NCC1CN(c2ccc(N3CCOCC3)c(F)c2)C(=O)O1 (stereo not drawn) | 158 to 160
COc1cc(C=CC(=O)CSc2ccccc2)ccc1O | 78 to 80
CCCOc1ccccc1-c1nc2cc(N)ccc2c(=O)[nH]1 | 185
N#CC(=NO)C1CCCOC1 (stereo not drawn) | 46 to 50
Cc1nc(NC(=O)c2cnn3c(C(F)F)cc(-c4ccc(C(F)(F)F)cc4)nc23)sc1S(=O)(=O)N(C)CCO | 216
CN1CCC(Nc2cccc(NC(=O)OC(C)(C)C)c2)CC1 | 124 to 125
O=C(Oc1ccccc1)N1Cc2ccccc2C2(Cc3ccccc3O2)C1 (stereo not drawn) | 128

Compound | melting point [°C]
COC(=O)Cc1ccc(CNC(=O)C2Cc3ccccc3N2S(=O)(=O)c2ccc(-c3ccc(F)cc3Cl)cc2)cc1 (stereo not drawn) | 70
Cc1cc(Cc2ccccc2)nc(Nc2ccc(-n3ccnc3CO)cc2)n1 | 95 to 98
CN(C)C(=O)c1cncn1C | 46 to 47
N#Cc1ccc(NCCO)c([N+](=O)[O-])c1 | 132 to 134
Cc1ccc(S(=O)(=O)OCC(C)(C)CS(N)(=O)=O)cc1 | 59 to 61
CCC(Oc1ccccc1C(C)=O)C(=O)OC1CC(O)C=C2C=CC(C)C(CCC3CC(O)CC(=O)O3)C21 (mixture of isomers) | 148 to 150
CCCCc1nc2c(N)nc3c(c2n1CCCCN)CCCC3 | 63 to 67
CCO/C(=N/O)C1Cc2cc(C(C)=O)c(O)c(Cl)c2O1 (stereo not drawn) | 154 to 155
CCCCc1oc2ccccc2c1C(=O)c1nc(Br)c(-c2ccc(OC)cc2)o1 | 62 to 64
OC1CSC(Oc2cncc(-c3ccc(N4CCCCC4)cc3)c2)C(O)C1O (stereo not drawn) | 196
COCOc1ccccc1-c1cc(-c2cccc(C(=O)NC3CCCN(C(=O)OC(C)(C)C)C3)c2)c(C#N)c(NC(=O)c2cccs2)n1 (stereo not drawn) | 167 to 168
CN1CCN(c2cccc3c2C[C@H](NC(=O)Cc2ccccc2)CC3)CC1 | 151 to 152
CN(C)c1c(C#N)c(C(F)(F)F)nn1-c1c(Cl)cc(C(F)(F)F)cc1Cl | 105 to 107
O=C(N[C@@H](Cc1c[nH]cn1)C(=O)OCCc1cccs1)C(Cc1cccc2ccccc12)Cc1cccc2ccccc12 | 203 to 206
COc1ccc(OCc2nc(N)c3nccnc3n2)cc1 | 238 to 240
CC(NC(=O)C(CS)C1CCc2ccccc21)C(=O)O (stereo not drawn) | 121
COc1ccnc(CCc2nc3cc(-c4ccc(S(=O)(=O)N5CCN(C(C)=O)CC5)cc4)cnc3[nH]2)c1 | 138 to 140
CC(=O)OC1CCC2(C)C(CCC3C4CC(C)C(O)(C(C)=O)C4(C)CCC32F)C1 (stereo not drawn) | 150
CCC(O)CNC(=O)c1nn(C2CCCCO2)cc1NC(=O)c1ccccn1 (stereo not drawn) | 160 to 161
COc1cc(CNc2ccc3c(c2)N2CCCN=C2S3)cc(OC)c1OC | 191
CCOCc1cc(OC)c(-c2ccc(C[C@H](NC(=O)c3c(F)cccc3F)C(=O)O)cc2)c(OC)c1 | 154 to 155
C=Cc1ccc(S(=O)(=O)Nc2ncnc(OCCO)c2Cc2c(OC)cccc2OC)cc1 | 138 to 139
O=C(Nc1ccc(Cl)c(Cl)c1)NS(=O)(=O)c1ccc(Cl)cc1 | 195 to 196
COCCNc1nccc(Oc2ccc(NC(=O)c3cc(F)cc(N4CCCCC4)c3)c3ccccc23)n1 | 87 to 88
Cn1ncc(/C=C/C(=O)O)c1-c1ccoc1 | 218 to 219

Compound | melting point [°C]
NC(=O)N1c2ccccc2C=C(Cl)c2ccccc21 | 183 to 185
C[C@]1(COc2ccc3nc(N4CCC(Cc5ccc(OC(F)(F)F)cc5)CC4)ccc3c2)Cn2cc([N+](=O)[O-])nc2O1 | 185 to 186
CC(C)(C)c1cc(C2N(c3ccccc3)CCN2c2ccccc2)cc(C(C)(C)C)c1O | 144
CN(C[C@H]1CC[C@H](c2nc3ccccc3n2C)CC1)C(=O)OCc1ccccc1 | 141 to 142
O=S(=O)(Cl)c1nc2ccccn2n1 | 116 to 118
O=C(Nc1ccc(Oc2ccccc2)cc1)N1CCN(c2nccc3ccccc23)CC1 | 122 to 123
CS(=O)(=O)c1ccc(Oc2cc(OCc3ccccc3)c3[nH]c(C(N)=O)cc3c2)cc1 | 251 to 252
CCOC(=O)c1ccc2nc(N)oc2c1 | 211 to 212
O=C1CCCCN1S(=O)(=O)c1ccc(N2CCCCC2)cc1 | 140 to 145
Fc1ccc2c(C3CCN(CCN4CCOCC4)CC3)noc2c1 | 131 to 132
Cc1c(N(C)C)ccc(Br)c1N=C1NCCN1 | 157 to 158
COc1cccc(C(=O)Nc2cnn(Cc3c(C)noc3C)c2)c1 | 127 to 129
Cn1cc(C(=O)NCc2ccc(Cl)cc2)c(=O)c2cc(CN3CC=C(F)CC3)ccc21 | 221 to 223
COC(=O)CCC(=O)N(C)c1cccc(OCc2nc3ccccc3s2)c1 | 107 to 110
COc1ccc(NS(C)(=O)=O)cc1C(=O)NC1CCN(C2CCCCC2)C1 (stereo not drawn) | 170 to 172
CCCCOc1c(CN2C(=O)c3ccccc3C2=O)n(CC(C)(C)C)c(=O)c2cc(F)ccc12 | 155 to 156
COC(=O)C(C)Oc1ccc(Oc2cnc3ccccc3n2)cc1 (stereo not drawn) | 110 to 115
O=CNNc1ccc(NC(=S)N2CC=CC2)cc1 | 218 to 220
CNS(=O)(=O)/C=C/c1ccc2[nH]cc(C3CCN(C)CC3)c2c1 | 190 to 192
Cc1nccn1N=Cc1ccccc1 | 122 to 124
C[C@H](Nc1nc(N=[N+]=[N-])nc(Cl)c1-c1c(F)cc(F)cc1F)C(F)(F)F | 152 to 154
CN(C)C(=O)c1c(-c2ccc(C(F)(F)F)cc2)ccc2ccccc12 | 184 to 186
C=C1C(=O)OC2C1CCC(CO)=CCCC1(C)OC21 (stereo not drawn) | 172 to 176
